These results are taken from patent US20030225001A1, “Preparation of an auricularia auricula polysaccharide and its use in mammals” (priority 2002, published 2003).

This assay deals with serum lipids (TC, TG, HDL, TC/HDL ratio) in humans. Briefly: Multicenter double-blind random trial: effect of AP on serum total cholesterol and triglycerides in humans. Type of assay: in vivo, human. From the text: A multicenter study, based on the Fujian Traditional Chinese Medicine Research Institute protocol, involved 476 patients between November 1994 and August 1996.
The total patient population was approximately 61% male, with the AP group being approximately 60% male and the control group approximately 64% male. Patients in each group were […] and averaged approximately 54-55 years of age. 164 patients had total cholesterol (TC) levels of 6.5-8.0 mmol/L, and 275 patients had triglycerides (TG) levels of 1.6-3.0 mmol/L. 131 patients had low high density lipoprotein (HDL) (<1.04 mmole/L for male, HDL<1.17 mmol/L for female). 201 patients had raised TC/HDL ratios (>5).
Patients with liver, renal and thyroid disease, as well as pregnant women and those who were on medications that could affect serum lipid readings, were excluded. Also excluded were patients who within the last year had had acute myocardial infarction, cerebral vascular diseases, major trauma and/or major surgery, as well as those with severe coronary or renal failure.
All medications were taken 2 times daily for 8 weeks. Although medications were administered by capsules, it should be understood that medications could be administered by tablets, liquids and/or pills as well.

Take `CC(C)OC(=O)C(C)(C)Oc1ccc(C(=O)c2ccc(Cl)cc2)cc1` [FF, Fenofibrate]: the “Range of decreases (HDL level)” value (HDL, start vs end of 8 weeks) is on record as 0.18 ± 0.15 mmol/L. Where the note is “after 8 weeks, AP 3 x 200 mg capsules or FF 100 mg tablet, 2 times daily”, the “End HDL” value was 1.06 ± 0.27 mmol/L. Moreover, where the note is “baseline, patients with low HDL”, the “Start HDL” value is 0.88 ± 0.27 mmol/L. The “End TC” value (total cholesterol after 8 weeks, AP 3 x 200 mg capsules or FF 100 mg tablet, 2 times daily) was 6.46 ± 1.33 mmol/L. For the same compound, for the setting “total cholesterol, baseline, patients with raised TC”, the “Start TC” value amounted to 7.81 ± 1.38 mmol/L. Moreover, the “End TC (table: Effect of AP on triglyceride (TG) level)” value (triglyceride table, after 8 weeks, AP 3 x 200 mg capsules or FF 100 mg tablet, 2 times daily) worked out at 1.96 ± 1.10 mmol/L. For the same compound, the “Start TC (table: Effect of AP on triglyceride (TG) level)” value (triglyceride table, baseline, patients with raised TG) is listed as 2.94 ± 1.38 mmol/L.
